This note sets out measurements from patent publication US12509437B2, “Substituted thiophene carboxamides and derivatives thereof as microbicides” (Bayer Aktiengesellschaft, priority 2019, dated 2025).

Like-named read-outs stand apart in the source and are kept apart here.

One data set deals with Peronospora parasitica. The experiment in a line: In vivo preventive test on Peronospora parasitica (Crucifer downy mildew) on cabbage. Conditions: Hyaloperonospora parasitica, 120 h, sprayed 72 hours before inoculation, evaluated 5 days after inoculation, read-out: efficacy; for pest or weed control at 125 ppm: 125 ppm of active ingredient; for pest or weed control at 500 ppm: 500 ppm of active ingredient; for pest or weed control at 31 ppm: 31 ppm of active ingredient. In a few lines: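 Young cabbage plants were sprayed with compound in aqueous acetone/DMSO/Tween, then inoculated 72 h later with P. parasitica spores and held 5 days at 20 °C, 100% RH. Efficacy scored 5 days post-inoculation: 0% equals solvent-treated controls, 100% means no disease.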

For the next data set, the system named is Uromyces appendiculatus. The experiment in a line: In vivo preventive test on Uromyces appendiculatus (bean rust). Conditions: 240 h, sprayed 72 hours before inoculation, evaluated 10 days after inoculation, read-out: efficacy; for pest or weed control at 125 ppm: 125 ppm of active ingredient; for pest or weed control at 500 ppm: 500 ppm of active ingredient; for pest or weed control at 31 ppm: 31 ppm of active ingredient. In a few lines:
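Young bean plants sprayed with compound in acetone/DMSO/Tween diluted in water, then inoculated 72 h later with spore suspension. Incubated 24 h at 20° C., 100% RH, then 9 days at 20° C., 70-80% RH. Efficacy scored 10 days post-inoculation, 0% = untreated-control level, 100% = no disease.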

In data set [1] the test system is salicylate responsive promoter sequence of the PR1 (pathogenesis-related protein I) gene (AT2G14610). The experiment in a line: Induction of defense gene expression in Arabidopsis thaliana (PR1 promoter-GFP reporter plants). Type of data set: in vivo. Conditions: 72 h, 3rd day after spraying, mock treated leaves set as 1.00, read-out: relative fluorescence value. In a few lines:
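Transgenic A. thaliana carrying GFP under the salicylate-responsive PR1 promoter, grown five days, then sprayed with compounds. Whole-plant fluorescence imaged and quantified on day 3 post-spray, expressed relative to mock-treated leaf background set at 1.00.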

The test system of data set [2] is Xanthomonas campestris pv. campestris. The experiment in a line: Xanthomonas campestris pv. campestris in vitro cell test. Type of data set: cell-based. As to conditions: 24 h of incubation, read-out: efficacy (inhibition of bacteria growth; no direct activity); for inhibition at 5 ppm: 5 ppm of active ingredient; for inhibition at 20 ppm: 20 ppm of active ingredient. How it is done: (§1) • Solvent: DMSO • Culture medium: LB broth medium (Luria Broth Miller) Sigma • Inoculum: bacteria suspension Compounds were solubilized in DMSO and the solution used to prepare the required range of concentrations. The final concentration of DMSO used in the assay was ≤1%. Inoculum was prepared from a pre-culture of bacteria grown in liquid medium and diluted to the desired optical density (OD). Compounds were evaluated for their ability to inhibit bacteria growth in liquid culture assay. The compounds were added in the desired concentrations to culture medium containing the bacteria suspension. After 24 h of incubation, the efficacy of compounds was determined by spectrometric measurement of bacteria growth. Inhibition was determined by comparing the absorbance values in wells containing the compounds with the absorbance in control wells without active ingredients.

Data set [3] has as its system Pseudomonas syringae pv. tomato. The experiment in a line: Pseudomonas syringae pv. tomato in vitro cell test. Type of data set: cell-based. As to conditions: 20 ppm of active ingredient, 24 h of incubation, read-out: efficacy (inhibition of bacteria growth; no direct activity). How it is done:
as §1

The test system of data set [4] is Colletotrichum lindemuthianum. The experiment in a line: Colletotrichum lindemuthianum in vitro cell test. Conditions: 144 h, 6 days incubation, read-out: efficacy (inhibition of fungal growth; no direct activity); for inhibition at 5 ppm: 5 ppm of active ingredient; for inhibition at 20 ppm: 20 ppm of active ingredient. Type of data set: cell-based. How it is done: (§2) • Solvent: DMSO • Culture medium: 14.6 g anhydrous D-glucose (VWR), 7.1 g Mycological Peptone (Oxoid), 1.4 g granulated Yeast Extract (Merck), QSP 1 liter • Inoculum: spores suspension Fungicides were solubilized in DMSO and the solution used to prepare the required range of concentrations. The final concentration of DMSO used in the assay was ≤[…]1%. A spore suspension of C. lindemuthianum was prepared and diluted to the desired spore density. Fungicides were evaluated for their ability to inhibit spores germination and mycelium growth in liquid culture assay. The compounds were added in the desired concentration to the culture medium with spores. After 6 days incubation, fungi-toxicity of compounds was determined by spectrometric measurement of mycelium growth. Inhibition of fungal growth was determined by comparing the absorbance values in wells containing the fungicides with the absorbance in control wells without fungicides.

The nature of data set [5]: LogP by HPLC on reversed phase columns (EEC directive 79/831 Annex V.A8). Type of data set: physicochemical. As to conditions: reversed phase HPLC columns. In a few lines:
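Reversed-phase HPLC, calibrated with straight-chain alkan-2-ones (C3–C16) of known LogP; values by linear interpolation of retention times between successive alkanones. Multiple values from one method are joined by "+"; lambda-max taken from 200–400 nm UV spectra at chromatographic peaks.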

The test system of the next data set is Alternaria alternata. The experiment in a line: Alternaria alternata in vitro cell test. Type of data set: cell-based. As to conditions: 120 h, 5 days incubation, read-out: efficacy (inhibition of fungal growth; no direct activity); for inhibition at 5 ppm: 5 ppm of active ingredient; for inhibition at 20 ppm: 20 ppm of active ingredient. How it is done:
as §2, with “of A. alternata” for “of C. lindemuthianum”, “inhibit spore” for “inhibit spores”, “After 5” for “After 6”

The subject of data set [6] is Colletotrichum lindemuthianum. The experiment in a line: In vivo preventive test on Colletotrichum lindemuthianum (Anthracnose on bean). As to conditions: Colletotrichum lindemuthianum, 144 h, sprayed 72 hours before inoculation, evaluated 6 days after inoculation, read-out: efficacy; for pest or weed control at 500 ppm: 500 ppm of active ingredient; for pest or weed control at 31 ppm: 31 ppm of active ingredient; for pest or weed control at 125 ppm: 125 ppm of active ingredient. How it is done:
The tested active ingredients were prepared by homogenization in a mixture of acetone/Dimethyl sulfoxide/Tween®, and then diluted with water to obtain the desired active material concentration.
The young plants of bean were treated by spraying the active ingredient prepared as described above. Control plants were treated only with an aqueous solution of acetone/Dimethyl sulfoxide/Tween®.
After 72 hours, the plants were contaminated by spraying the leaves with an aqueous suspension of Colletotrichum lindemuthianum spores. The contaminated bean plants were incubated for 24 hours at 20° C. and at 100% relative humidity and then for 5 days at 20° C. and at 90% relative humidity.
The test was evaluated 6 days after the inoculation. 0% means an efficacy which corresponds to that of the control plants while an efficacy of 100% means that no disease was observed.

Data set [7] has as its system Xanthomonas campestris pv. campestris. The experiment in a line: In vivo preventive test on Xanthomonas campestris pv. campestris (black rot on cabbage). Conditions: Xanthomonas campestris, 125 ppm of active ingredient, sprayed 72 hours before inoculation, evaluated 8 or 10 days after inoculation, read-out: efficacy. The essentials:
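Young cabbage plants sprayed preventively with compound formulated in acetone/DMSO/Tween and diluted in water, then inoculated 72 h later with a bacterial spray. Kept at 27° C, 95% relative humidity; disease scored after 8 or 10 days as % efficacy versus solvent-treated controls (0% = control, 100% = no disease).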

With `C=CC1CC1(NC(=O)c1sc(Br)c(Br)c1C)C(=O)OC` (stereo not drawn) [I.003], the pest or weed control at 125 ppm in the data set on Peronospora parasitica fell in the range of 80 to 89%; in the data set on Uromyces appendiculatus it was 90 to 100%. The pest or weed control at 500 ppm in the data set with Peronospora parasitica lay in the range of 90 to 100%; in the data set on Uromyces appendiculatus it was 90 to 100%; in [6], 80 to 89%. Moreover, the fold induction at 75 ppm in data set [1] was above 2. The inhibition at 5 ppm (in [2]; in data set [4]; in the data set on Alternaria alternata) was at most 30% in each case. Besides, the inhibition at 20 ppm (in data set [2]; in [3]; in the data set with Alternaria alternata) was at most 30% throughout. The same compound returned a chromatographic logP in data set [5] (method [a]) of 3.48.

As to `CCOC(=O)C1(NC(=O)c2sc(Br)c(Br)c2C)COC1` [I.014], the pest or weed control at 31 ppm with Peronospora parasitica is 90 to 100%; with Uromyces appendiculatus it was 90 to 100%; in data set [6], 70 to 79%. Besides, the figures for the pest or weed control at 125 ppm (in the data set on Peronospora parasitica; in the data set on Uromyces appendiculatus; in [6]) were 90 to 100%, 90 to 100% and 80 to 89%, respectively. In addition, the pest or weed control at 500 ppm (in the data set with Peronospora parasitica; in the data set with Uromyces appendiculatus; in [6]) was 90 to 100% throughout. Besides, the fold induction at 75 ppm in data set [1] is above 2. Besides, in data set [1], the fold induction at 300 ppm was above 2. In addition, the inhibition at 5 ppm (in data set [2]; in [4]; in the data set with Alternaria alternata) was at most 30% throughout. Also, the inhibition at 20 ppm (in data set [2]; in data set [3]; in data set [4]; in the data set on Alternaria alternata) was at most 30% in each case. Besides, in data set [5] (method [a]), the chromatographic logP was 2.9.

Consider `Cc1c(C(=S)N[C@H](C(=O)O)C(C)C)sc(Br)c1Br` [I.031, N-[(4,5-dibromo-3-methyl-2-thienyl)carbonothioyl]valine], for which the pest or weed control at 125 ppm in the data set on Peronospora parasitica lay within 90 to 100%. The pest or weed control at 500 ppm in the data set with Peronospora parasitica lay in the range of 90 to 100%; in the data set on Uromyces appendiculatus, 70 to 79%; in data set [6], 90 to 100%. The fold induction at 75 ppm in data set [1] was above 2. Moreover, the fold induction at 300 ppm in data set [1] was above 2. Further, the inhibition at 5 ppm (in [2]; in data set [4]; with Alternaria alternata) was at most 30% in each case. For the same compound, the inhibition at 20 ppm (in data set [2]; in data set [3]; in data set [4]; with Alternaria alternata) was at most 30% each time. The chromatographic logP in [5] (preparation examples, method not indicated, read-out: Log P) was found to be 3.72.

Take `CCOC(=O)C(Cc1c[nH]c2ccccc12)NC(=O)c1sc(Cl)c(Cl)c1C` (stereo not drawn) [I.040]: the pest or weed control at 500 ppm in the data set with Peronospora parasitica lay within 90 to 100%. In addition, in data set [1], the fold induction at 75 ppm is above 2 and the fold induction at 300 ppm was above 2. In [2], the inhibition at 5 ppm was at most 30% and the inhibition at 20 ppm was at most 30%. Further, the inhibition at 20 ppm in data set [3] is at most 30%. In [5] (method [a]), this compound registered a chromatographic logP of 4.08. Besides, in data set [6], the pest or weed control at 125 ppm is 90 to 100% and the pest or weed control at 500 ppm was in the range of 90 to 100%.

With `COC(=O)C(CC(F)F)NC(=O)c1sc(Cl)c(Cl)c1C` (stereo not drawn) [I.043], the pest or weed control at 31 ppm (in the data set with Peronospora parasitica; in data set [6]) was 90 to 100% in each case. Moreover, the pest or weed control at 125 ppm in the data set on Peronospora parasitica is 90 to 100%; in the data set with Uromyces appendiculatus, 80 to 89%; in [6], 90 to 100%. Further, the pest or weed control at 500 ppm (in the data set on Peronospora parasitica; with Uromyces appendiculatus; in data set [6]) was 90 to 100% in each case. In addition, the fold induction at 300 ppm in data set [1] was above 2. In addition, the inhibition at 5 ppm (in data set [2]; in [4]; in the data set on Alternaria alternata) was at most 30% each time. For the same compound, the inhibition at 20 ppm (in data set [2]; in data set [3]; in the data set on Alternaria alternata) was at most 30% each time. Also, the chromatographic logP in [5] (method [a]) was 3.25.

For the compound `CCOC(=O)C(CC(N)=O)NC(=O)c1sc(Cl)c(Cl)c1C` (stereo not drawn) [I.045], the pest or weed control at 31 ppm in the data set with Peronospora parasitica fell in the range of 90 to 100%. For the same compound, the pest or weed control at 125 ppm with Peronospora parasitica lay within 90 to 100%. Further, the values for the pest or weed control at 500 ppm (in the data set on Peronospora parasitica; with Uromyces appendiculatus; in data set [6]) were 90 to 100%, 90 to 100% and 80 to 89%, respectively. In addition, in data set [1], the fold induction at 300 ppm is above 2. Besides, the inhibition at 5 ppm (in [2]; in data set [4]; in the data set on Alternaria alternata) was at most 30% each time. Besides, the inhibition at 20 ppm (in data set [2]; in [3]; in data set [4]; in the data set with Alternaria alternata) was at most 30% each time. The compound also displayed a chromatographic logP in data set [5] (method [a]) of 2.28.

As to `Cc1c(C(=O)NC(C)(C)C(=O)O)sc(Cl)c1Cl` [I.174], the pest or weed control at 125 ppm in the data set on Peronospora parasitica lay in the range of 90 to 100%; in the data set with Uromyces appendiculatus it was 90 to 100%; in [7], 70 to 79%. For the same compound, in the data set on Uromyces appendiculatus, the pest or weed control at 31 ppm fell in the range of 90 to 100%. Moreover, in data set [1], the fold induction at 75 ppm was above 2. In [1], the fold induction at 300 ppm was above 2. The inhibition at 5 ppm (in data set [2]; in data set [4]; in the data set on Alternaria alternata) was at most 30% in each case. Besides, the inhibition at 20 ppm (in [2]; in data set [3]; in [4]; in the data set with Alternaria alternata) was at most 30% in each case. Also, the chromatographic logP in data set [5] (method [a]) worked out at 2.43.

A word on the inhibition: it is the share of the control response that was lost under treatment.
